# Measurements from patent US20080039816A1, “Carbohydrate-Encapsulated Quantum Dots for Bilogical Imaging” (The Government of the United States of America as …, priority 2004, published 2008).
# Test: Storage stability of thiol ligands (dimerization to disulfide)
# Format: physicochemical
# Description: In a second, alternative approach for hydrolysis, the debenzylidinated thioester (300 mg) was dissolved in methanol (5 ml). […] Air was bubbled through the solution and the solution was stirred at room temperature and allowed to react for 24 hours. […] The Thomsen-Friedenreich-disulfide of formula VII (130 mg) was then dissolved in distilled water (1 ml) and degassed with argon for 20 minutes. Dithiothreitol (130 mg) was added and the solution allowed to react for 20 minutes. The excess dithiothreitol was then removed by several extractions with ethyl acetate. The residue was then purified by reverse phase flash chromatography on a C-18 column with an aqueous solution of methanol (10%-40% (v/v)) to yield the Thomsen-Friedenreich-thiol of formula VI.
# After 30 min, the reaction was carefully neutralized with strongly acidic ion-exchange resin Amberlite®-120, filtered and concentrated. Purification was accomplished on a Strata® SI-1 silica gel cartridge eluting with 20% MeOH in CH2Cl2.
structure (smiles),measurement,setting,value
CC(=O)NC1C(OCCCCCS)OC(CO)C(O)C1OC1OC(CO)C(O)C(O)C1O (centres unmarked) [formula 3],stability upon standing at room temperature,room temperature,oxidizes to the Thomsen-Friedenreich-disulfide of formula VII
same,storage stability (dimerization),stored at −20° C. (under argon),without significant dimerization for weeks
